Test results reported in the kinase profiling compilation of Christmann-Franck et al. (2016).

Legend:
Assay in all cases: radiometric filter-binding kinase assay
HIPK1 (human) = HIPK1 (human) (UniProt Q86Z02)
MAPK11 (human) = MAPK11 (human) (UniProt Q15759)
SRC (human) = SRC (human) (UniProt P12931)
BRSK1 (human) = BRSK1 (human) (UniProt Q8TDC3)
MAP3K7 TAB1 (human) = MAP3K7 TAB1 (human) (UniProt Q15750+O43318)
LCK (mouse) = conditions: accession and sequence are those of the human protein
MAPK15 (human) = MAPK15 (human) (UniProt Q8TD08)
Chain of MAPK15 (human) (Q8TD08 whole entry, looked up): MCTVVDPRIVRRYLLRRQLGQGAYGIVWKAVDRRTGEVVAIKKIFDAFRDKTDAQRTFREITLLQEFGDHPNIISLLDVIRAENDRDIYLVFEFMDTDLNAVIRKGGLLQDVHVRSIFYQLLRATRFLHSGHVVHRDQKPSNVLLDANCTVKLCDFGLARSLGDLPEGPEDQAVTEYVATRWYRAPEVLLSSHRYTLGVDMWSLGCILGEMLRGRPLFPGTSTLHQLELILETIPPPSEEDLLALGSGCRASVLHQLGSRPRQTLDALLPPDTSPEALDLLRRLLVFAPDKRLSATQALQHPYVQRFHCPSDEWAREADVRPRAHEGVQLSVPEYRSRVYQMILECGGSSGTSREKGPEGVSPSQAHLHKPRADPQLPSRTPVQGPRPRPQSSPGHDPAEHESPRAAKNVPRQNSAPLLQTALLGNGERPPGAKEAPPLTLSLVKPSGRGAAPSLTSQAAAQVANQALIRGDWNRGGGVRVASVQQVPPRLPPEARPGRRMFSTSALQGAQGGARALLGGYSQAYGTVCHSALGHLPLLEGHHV

ROCK2 (rat) = conditions: accession and sequence are those of the human protein
FGFR1 (human) = FGFR1 (human) (UniProt P11362)
Chain of FGFR1 (human) (P11362 whole entry, looked up): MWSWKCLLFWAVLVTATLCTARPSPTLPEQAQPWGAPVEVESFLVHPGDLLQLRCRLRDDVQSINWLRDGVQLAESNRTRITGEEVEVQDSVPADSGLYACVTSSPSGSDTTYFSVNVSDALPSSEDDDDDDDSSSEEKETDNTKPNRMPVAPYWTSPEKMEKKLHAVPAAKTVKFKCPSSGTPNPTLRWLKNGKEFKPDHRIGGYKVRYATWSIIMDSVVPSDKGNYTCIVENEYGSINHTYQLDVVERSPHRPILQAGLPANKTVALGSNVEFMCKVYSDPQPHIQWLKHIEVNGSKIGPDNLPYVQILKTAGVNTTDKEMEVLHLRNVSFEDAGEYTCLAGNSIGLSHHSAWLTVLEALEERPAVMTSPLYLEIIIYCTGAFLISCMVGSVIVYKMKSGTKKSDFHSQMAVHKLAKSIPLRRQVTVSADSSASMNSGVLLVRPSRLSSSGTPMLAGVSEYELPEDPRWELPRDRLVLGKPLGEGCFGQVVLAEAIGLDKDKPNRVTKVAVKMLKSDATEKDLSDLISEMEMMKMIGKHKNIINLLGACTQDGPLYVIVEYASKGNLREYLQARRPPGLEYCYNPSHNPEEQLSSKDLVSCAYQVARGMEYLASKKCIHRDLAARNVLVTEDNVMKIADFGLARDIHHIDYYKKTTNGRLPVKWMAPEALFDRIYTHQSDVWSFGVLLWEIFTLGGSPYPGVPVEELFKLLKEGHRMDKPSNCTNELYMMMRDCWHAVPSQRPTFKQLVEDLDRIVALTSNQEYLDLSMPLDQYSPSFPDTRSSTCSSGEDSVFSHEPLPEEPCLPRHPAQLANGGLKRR

RIPK2 (human) = RIPK2 (human) (UniProt O43353)
MELK (human) = MELK (human) (UniProt Q14680)
Chain of MELK (human) (Q14680 whole entry, looked up): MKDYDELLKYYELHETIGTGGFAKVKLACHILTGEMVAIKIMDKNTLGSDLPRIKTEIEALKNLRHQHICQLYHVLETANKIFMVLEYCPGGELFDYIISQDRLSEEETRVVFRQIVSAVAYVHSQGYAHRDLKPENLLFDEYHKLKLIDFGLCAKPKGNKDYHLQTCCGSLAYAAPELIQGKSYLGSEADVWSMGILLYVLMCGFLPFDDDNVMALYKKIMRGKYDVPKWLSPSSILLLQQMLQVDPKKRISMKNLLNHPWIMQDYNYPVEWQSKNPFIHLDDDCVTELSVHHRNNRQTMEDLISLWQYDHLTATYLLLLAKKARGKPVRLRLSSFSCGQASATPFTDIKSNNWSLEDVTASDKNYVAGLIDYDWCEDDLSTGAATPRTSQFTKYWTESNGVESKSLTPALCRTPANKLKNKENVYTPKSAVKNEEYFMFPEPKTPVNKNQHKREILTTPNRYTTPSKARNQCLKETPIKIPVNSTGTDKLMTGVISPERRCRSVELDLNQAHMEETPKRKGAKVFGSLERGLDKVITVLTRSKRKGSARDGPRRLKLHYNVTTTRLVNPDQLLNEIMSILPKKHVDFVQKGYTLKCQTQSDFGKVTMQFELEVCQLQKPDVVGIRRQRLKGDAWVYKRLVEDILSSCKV

HIPK3 (human) = HIPK3 (human) (UniProt Q9H422)
EPHA2 (human) = EPHA2 (human) (UniProt P29317)
JAK2 JH1 JH2 (human) = JAK2 JH1 JH2 (human) (UniProt O60674)
GSK3B (human) = GSK3B (human) (UniProt P49841)
Chain of GSK3B (human) (P49841 whole entry, looked up): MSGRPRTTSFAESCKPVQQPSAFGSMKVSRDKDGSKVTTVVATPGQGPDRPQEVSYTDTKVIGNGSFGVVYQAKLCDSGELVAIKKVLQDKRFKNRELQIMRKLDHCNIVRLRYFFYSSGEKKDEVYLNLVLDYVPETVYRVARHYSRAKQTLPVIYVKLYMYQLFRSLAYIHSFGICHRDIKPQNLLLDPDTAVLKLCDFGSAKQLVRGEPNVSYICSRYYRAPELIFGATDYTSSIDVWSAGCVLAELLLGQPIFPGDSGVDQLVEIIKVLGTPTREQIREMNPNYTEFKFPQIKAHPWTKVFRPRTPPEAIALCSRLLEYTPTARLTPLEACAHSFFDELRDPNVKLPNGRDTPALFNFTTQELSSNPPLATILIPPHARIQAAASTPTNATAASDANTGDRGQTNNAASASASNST

CSK (human) = CSK (human) (UniProt P41240)
Chain of CSK (human) (P41240 whole entry, looked up): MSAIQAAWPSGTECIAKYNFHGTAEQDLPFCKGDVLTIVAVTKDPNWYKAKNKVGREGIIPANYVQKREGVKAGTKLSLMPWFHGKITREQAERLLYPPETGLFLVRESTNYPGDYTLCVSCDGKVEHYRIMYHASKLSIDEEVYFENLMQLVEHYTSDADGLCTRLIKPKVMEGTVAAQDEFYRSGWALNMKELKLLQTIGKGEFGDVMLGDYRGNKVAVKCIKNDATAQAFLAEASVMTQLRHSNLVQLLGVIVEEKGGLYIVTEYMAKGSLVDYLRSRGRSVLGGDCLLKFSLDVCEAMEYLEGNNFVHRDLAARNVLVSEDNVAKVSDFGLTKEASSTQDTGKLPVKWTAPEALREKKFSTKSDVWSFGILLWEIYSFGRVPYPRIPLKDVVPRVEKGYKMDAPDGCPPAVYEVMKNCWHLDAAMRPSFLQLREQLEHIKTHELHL

IRAK4 (human) = IRAK4 (human) (UniProt Q9NWZ3)
FLT1 (human) = FLT1 (human) (UniProt P17948)
TAOK1 (human) = TAOK1 (human) (UniProt Q7L7X3)
MAP3K1 (human) = MAP3K1 (human) (UniProt Q13233)
INSR (human) = INSR (human) (UniProt P06213)
IGF1R (human) = IGF1R (human) (UniProt P08069)
MARK1 (human) = MARK1 (human) (UniProt Q9P0L2)
RPS6KA3 KD1 KD2 (human) = RPS6KA3 KD1 KD2 (human) (UniProt P51812)
CLK2 (human) = CLK2 (human) (UniProt P49760)
CSNK1D (human) = CSNK1D (human) (UniProt P48730)
Chain of CSNK1D (human) (P48730 whole entry, looked up): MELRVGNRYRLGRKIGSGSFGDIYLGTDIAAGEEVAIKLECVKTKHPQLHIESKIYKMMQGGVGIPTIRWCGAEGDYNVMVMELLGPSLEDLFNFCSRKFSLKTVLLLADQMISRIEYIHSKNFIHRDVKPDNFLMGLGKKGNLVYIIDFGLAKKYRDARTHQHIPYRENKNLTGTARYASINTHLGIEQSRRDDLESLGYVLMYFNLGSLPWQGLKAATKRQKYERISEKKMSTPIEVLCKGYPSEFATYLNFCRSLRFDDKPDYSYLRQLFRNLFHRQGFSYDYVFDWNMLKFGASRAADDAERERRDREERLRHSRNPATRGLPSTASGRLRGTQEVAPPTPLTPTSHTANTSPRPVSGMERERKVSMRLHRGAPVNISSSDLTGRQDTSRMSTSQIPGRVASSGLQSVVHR

[1] = tested on: AKT2 (human), P31751 [S474D]
CAMKK2 (human) = CAMKK2 (human) (UniProt Q96RR4)
MAPK14 (human) = MAPK14 (human) (UniProt Q16539)
Chain of MAPK14 (human) (Q16539 whole entry, looked up): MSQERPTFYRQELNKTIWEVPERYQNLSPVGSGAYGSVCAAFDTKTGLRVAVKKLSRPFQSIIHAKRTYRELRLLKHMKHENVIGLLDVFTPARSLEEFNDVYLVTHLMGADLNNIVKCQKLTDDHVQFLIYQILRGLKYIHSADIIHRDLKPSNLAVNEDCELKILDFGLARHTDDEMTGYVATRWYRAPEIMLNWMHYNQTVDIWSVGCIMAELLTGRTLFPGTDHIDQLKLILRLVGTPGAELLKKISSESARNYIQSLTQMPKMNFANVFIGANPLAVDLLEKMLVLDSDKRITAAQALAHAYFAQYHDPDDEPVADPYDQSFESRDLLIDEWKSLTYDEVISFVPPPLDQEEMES

DYRK3 (human) = DYRK3 (human) (UniProt O43781)
Chain of DYRK3 (human) (O43781 whole entry, looked up): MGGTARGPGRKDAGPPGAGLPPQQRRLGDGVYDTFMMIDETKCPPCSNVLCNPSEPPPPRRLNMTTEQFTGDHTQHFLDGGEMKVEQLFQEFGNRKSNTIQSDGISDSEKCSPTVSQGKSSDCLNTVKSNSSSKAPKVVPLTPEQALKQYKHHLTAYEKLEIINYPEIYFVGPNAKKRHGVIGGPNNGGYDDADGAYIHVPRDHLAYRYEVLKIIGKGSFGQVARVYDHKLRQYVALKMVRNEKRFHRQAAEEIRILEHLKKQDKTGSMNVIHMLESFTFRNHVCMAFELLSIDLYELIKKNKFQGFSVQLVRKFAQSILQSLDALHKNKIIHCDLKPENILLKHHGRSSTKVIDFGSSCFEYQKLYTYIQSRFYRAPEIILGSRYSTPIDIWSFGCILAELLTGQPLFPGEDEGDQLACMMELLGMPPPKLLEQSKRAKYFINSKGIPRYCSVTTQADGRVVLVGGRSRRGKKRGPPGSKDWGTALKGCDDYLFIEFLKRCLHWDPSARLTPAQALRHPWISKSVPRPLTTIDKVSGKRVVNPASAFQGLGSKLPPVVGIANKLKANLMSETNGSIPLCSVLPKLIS

MAPKAPK5 (human) = MAPKAPK5 (human) (UniProt Q8IW41)
[2] = biological target: STK11 CAB39 STRADA (human) (UniProt Q9Y376+Q7RTN6+Q15831)
MINK1 (human) = MINK1 (human) (UniProt Q8N4C8)
NTRK1 (human) = NTRK1 (human) (UniProt P04629)
PRKCZ (human) = PRKCZ (human) (UniProt Q05513)

Chain of MAPK11 (human) (Q15759 whole entry, looked up): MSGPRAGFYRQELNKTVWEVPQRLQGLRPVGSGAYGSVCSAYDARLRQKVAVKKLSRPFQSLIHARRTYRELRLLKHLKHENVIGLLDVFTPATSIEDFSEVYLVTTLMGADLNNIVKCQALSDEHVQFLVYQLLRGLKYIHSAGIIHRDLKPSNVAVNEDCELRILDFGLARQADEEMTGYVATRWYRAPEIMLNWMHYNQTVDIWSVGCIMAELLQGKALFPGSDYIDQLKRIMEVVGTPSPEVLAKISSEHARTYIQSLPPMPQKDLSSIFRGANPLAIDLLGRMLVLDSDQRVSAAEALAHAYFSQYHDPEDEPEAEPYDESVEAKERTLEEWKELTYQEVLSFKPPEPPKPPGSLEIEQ

SMILES: N#Cc1c(O)c2c(-c3ccc(-c4ccccc4O)cc3)csc2[nH]c1=O
- residual activity (HIPK1 (human); compound 10.0 µM): 74%
- residual activity (HIPK1 (human); compound 100.0 µM): 35%
- residual activity (MAPK11 (human); compound 10.0 µM): 89%
- residual activity (MAPK11 (human); compound 50.0 µM): 84%
- residual activity (MAPK11 (human); compound 100.0 µM): 77%
- residual activity (SRC (human); compound 10.0 µM): 44%
- residual activity (SRC (human); compound 50.0 µM): 65%
- residual activity (SRC (human); compound 100.0 µM): 10%
- residual activity (BRSK1 (human); compound 10.0 µM): 76%
- residual activity (BRSK1 (human); compound 100.0 µM): 51%
- residual activity (MAP3K7 TAB1 (human); compound 10.0 µM): 83%
- residual activity (MAP3K7 TAB1 (human); compound 100.0 µM): 72%
- residual activity (LCK (mouse); compound 10.0 µM): 88%
- residual activity (LCK (mouse); compound 50.0 µM): 58%
- residual activity (LCK (mouse); compound 100.0 µM): 58%
- residual activity (MAPK15 (human); compound 10.0 µM): 81%
- residual activity (MAPK15 (human); compound 50.0 µM): 36%
- residual activity (MAPK15 (human); compound 100.0 µM): 24%
- residual activity (ROCK2 (rat); compound 10.0 µM): 91%
- residual activity (ROCK2 (rat); compound 50.0 µM): 49%
- residual activity (ROCK2 (rat); compound 100.0 µM): 75%
- residual activity (FGFR1 (human); compound 10.0 µM): 109%
- residual activity (FGFR1 (human); compound 50.0 µM): 95%
- residual activity (FGFR1 (human); compound 100.0 µM): 50%
- residual activity (RIPK2 (human); compound 10.0 µM): 110%
- residual activity (RIPK2 (human); compound 100.0 µM): 139%
- residual activity (MELK (human); compound 10.0 µM): 46%
- residual activity (MELK (human); compound 50.0 µM): 64%
- residual activity (MELK (human); compound 100.0 µM): 21%
- residual activity (HIPK3 (human); compound 10.0 µM): 97%
- residual activity (HIPK3 (human); compound 50.0 µM): 52%
- residual activity (HIPK3 (human); compound 100.0 µM): 43%
- residual activity (EPHA2 (human); compound 10.0 µM): 82%
- residual activity (EPHA2 (human); compound 50.0 µM): 64%
- residual activity (EPHA2 (human); compound 100.0 µM): 40%
- residual activity (JAK2 JH1 JH2 (human); compound 10.0 µM): 83%
- residual activity (JAK2 JH1 JH2 (human); compound 100.0 µM): 32%
- residual activity (GSK3B (human); compound 10.0 µM): 80%
- residual activity (GSK3B (human); compound 50.0 µM): 17%
- residual activity (GSK3B (human); compound 100.0 µM): 46%
- residual activity (CSK (human); compound 10.0 µM): 79%
- residual activity (CSK (human); compound 50.0 µM): 46%
- residual activity (CSK (human); compound 100.0 µM): 82%
- residual activity (IRAK4 (human); compound 10.0 µM): 82%
- residual activity (IRAK4 (human); compound 100.0 µM): 34%
- residual activity (FLT1 (human); compound 10.0 µM): 65%
- residual activity (FLT1 (human); compound 100.0 µM): 11%
- residual activity (TAOK1 (human); compound 10.0 µM): 83%
- residual activity (TAOK1 (human); compound 100.0 µM): 18%
- residual activity (MAP3K1 (human); compound 10.0 µM): 26%
- residual activity (MAP3K1 (human); compound 100.0 µM): 7%
- residual activity (INSR (human); compound 10.0 µM): 103%
- residual activity (INSR (human); compound 100.0 µM): 69%
- residual activity (IGF1R (human); compound 10.0 µM): 94%
- residual activity (IGF1R (human); compound 100.0 µM): 65%
- residual activity (MARK1 (human); compound 10.0 µM): 59%
- residual activity (MARK1 (human); compound 100.0 µM): 68%
- residual activity (RPS6KA3 KD1 KD2 (human); compound 10.0 µM): 74%
- residual activity (RPS6KA3 KD1 KD2 (human); compound 50.0 µM): 27%
- residual activity (RPS6KA3 KD1 KD2 (human); compound 100.0 µM): 13%
- residual activity (CLK2 (human); compound 10.0 µM): 81%
- residual activity (CLK2 (human); compound 100.0 µM): 30%
- residual activity (CSNK1D (human); compound 10.0 µM): 88%
- residual activity (CSNK1D (human); compound 50.0 µM): 60%
- residual activity (CSNK1D (human); compound 100.0 µM): 88%
- residual activity ([1]; compound 10.0 µM): 56%
- residual activity ([1]; compound 50.0 µM): 37%
- residual activity ([1]; compound 100.0 µM): 11%
- residual activity (CAMKK2 (human); compound 10.0 µM): 87%
- residual activity (CAMKK2 (human); compound 50.0 µM): 48%
- residual activity (CAMKK2 (human); compound 100.0 µM): 78%
- residual activity (MAPK14 (human); compound 10.0 µM): 97%
- residual activity (MAPK14 (human); compound 50.0 µM): 122%
- residual activity (MAPK14 (human); compound 100.0 µM): 90%
- residual activity (DYRK3 (human); compound 10.0 µM): 54%
- residual activity (DYRK3 (human); compound 50.0 µM): 47%
- residual activity (DYRK3 (human); compound 100.0 µM): 6%
- residual activity (MAPKAPK5 (human); compound 10.0 µM): 52%
- residual activity (MAPKAPK5 (human); compound 50.0 µM): 25%
- residual activity (MAPKAPK5 (human); compound 100.0 µM): 15%
- residual activity ([2]; compound 10.0 µM): 86%
- residual activity ([2]; compound 100.0 µM): 65%
- residual activity (MINK1 (human); compound 10.0 µM): 65%
- residual activity (MINK1 (human); compound 100.0 µM): 5%
- residual activity (NTRK1 (human); compound 10.0 µM): 69%
- residual activity (NTRK1 (human); compound 100.0 µM): 28%
- residual activity (PRKCZ (human); compound 10.0 µM): 96%
- residual activity (PRKCZ (human); compound 50.0 µM): 67%
- residual activity (PRKCZ (human); compound 100.0 µM): 28%
